Assay results reported in patent publication US20250195478A1, “DUAL INHIBITORS OF VISTA AND PD-1 PATHWAYS” (Aurigene Oncology Limited, priority 2016, published 2025).

Tests used:
recombinant human VISTA = molecular target: T1, recombinant human VISTA (Homo sapiens, UniProt Q9H7M9); test: Human PBMC IFN-γ release assay in the presence of recombinant human VISTA; type: cell-based; details: 100 nM compound, plate-coated VISTA + anti-CD3, anti-CD28, 72 h, ELISA
T1 construct: Fc (Fc chimera); purchased R&D Systems 7126-B7
Procedure: Example 2: Rescue of Mouse Splenocyte Proliferation in the Presence of Recombinant VISTA
Vehicle: Milli Q water; RPMI 1640 (GIBCO, Cat #11875); Fetal Bovine Serum [Hyclone, Cat #SH30071.03]; Penicilin (10000 unit/ml)-Streptomycin (10,000 μg/ml) liquid (GIBCO, Cat #15140-122); MEM Sodium Pyruvate solution 100 mM (100×), Liquid (GIBCO, Cat #11360); Nonessential amino acid (GIBCO, Cat #11140); L-Glutamine (GIBCO, Cat #25030); Recombinant human VISTA (rhGi24 VISTA/B7-H5 Fc chimera (R&D systems, cat no: 7126-B7); Anti-h/m Gi24/VISTA/B7-H5 purified mouse monoclonal IgG2B (R&D systems, cat no: MAB7126); Mouse IgG2B isotype control (R&D Systems cat no: MAB 004); Anti human-CD3 antibody (eBiosciences-16-0039); Anti human-CD28 antibody (eBiosciences-16-0289); Histopaque (density-1.077 gm/ml) (SIGMA 1077); Trypan Blue solution (SIGMA-T8154); Hemacytometer (Bright line-SIGMA Z359629); FACS Buffer containing Phosphate Buffered Saline (PBS) pH 7.2; (HiMedia TS1006) with 0.1% Bovine Serum Albumin (BSA) (SIGMA A7050) and sodium azide (SIGMA 08591); 96-well format ELISA plates (Corning 3599); 96-well format ELISA plates (Corning 3361); BD FACS caliber (E6016); Centrifuge (Eppendorf 5810 R); Human IFN-γ Duo set ELISA kit (R&D Systems; cat no: DY-285).
96-well cell culture plates were pre-coated with recombinant human VISTA (2.5 μg/ml) and anti-human CD3 (2.5 μg/ml), and stored at 4° C. overnight. Anti-human VISTA and isotype control antibodies were either coated along with the VISTA or incubated for 30 min next day before addition of cells. On the next day, plates were washed with 1×PBS and then incubated with test compounds for 30 min. Isolated PBMC (0.1×10^6 cells/well) and anti-human CD28 antibodies (lug/ml) were added to the wells. The culture was further incubated for 72 h at 37° C. with 5% CO2. After 72 h of incubation the cell culture supernatants were collected after brief centrifugation at 200 g×5 min at 4° C. and processed for human IFN-γ measurement by ELISA following manufacturer's protocol (R&D Systems; DY-285).
In brief, 96-well ELISA plates were coated with 100 μl/well of capture antibody in coating buffer and incubated overnight at 4° C. Plates were washed five times with wash buffer and further blocked with 200 μl of 1× assay diluents for 1 hr at RT. Following wash step, 100 μl of cell culture supernatants were added to wells and further incubated for 2 hr at RT. Appropriate standards were also included. After wash step, plate was incubated for one hour with 100 μl/well of detection antibody. The wash step was repeated and the plate was incubated for 30 min with 100 μl/well of Avidin-HRP. The plate was washed four times with wash buffer and subsequently incubated for 15 min with 100 μl/well of substrate solution. 50 μl of stop solution was added to each well and the plate was read at 450 nm using Gen5 ver 2.05. Delta OD values were used for calculating the concentrations. The absorbance values were plotted against the standards and the concentration of IFN-γ was determined using GraphPad Prism software. Each experimental condition was carried out in triplicates.
The percent rescue of IFN-γ release of the selected compounds of present invention are set forth below wherein “A” refers to compounds having more than 70% rescue of IFN-γ release, “B” refers to compounds having rescue of IFN-γ release ranges from 50% to 69.9% and “C” refers to compounds having less than 50% rescue of IFN-γ release.

Recombinant mouse PD-L1 = molecular target: T2, Recombinant mouse PD-L1 (Mus musculus, UniProt Q9EP73); test: Rescue of mouse splenocyte proliferation in the presence of recombinant PD-L1 (CFSE proliferation assay); type: cell-based; details: 100 nM compound; anti-CD3/CD28 stimulated mouse splenocytes + PD-L1; 72 h; stimulated splenocytes = 100%; read-out: PDL1 (rescue of proliferation @ 100 nM)
T2 construct: Fc (Fc chimera); purchased R&D Systems 1019-B7-100
Procedure: Example 1: Rescue of Mouse Splenocyte Proliferation in the Presence of Recombinant PD-L1/PD-L2
Recombinant mouse PD-L1 (rm-PDL-1, cat no: 1019-B7-100; R&D Systems) were used as the source of PD-L1.
Mouse splenocytes harvested from 6-8 weeks old C57 BL6 mice; RPMI 1640 (GIBCO, Cat #11875); DMEM with high glucose (GIBCO, Cat #D6429); Fetal Bovine Serum [Hyclone, Cat #SH30071.03]; Penicillin (10000unit/mL)-Streptomycin (10,000 μg/mL) Liquid (GIBCO, Cat #15140-122); MEM Sodium Pyruvate solution 100 mM (100×), Liquid (GIBCO, Cat #11360); Nonessential amino acid (GIBCO, Cat #11140); L-Glutamine (GIBCO, Cat #25030); Anti-CD3 antibody (eBiosciences-16-0032); Anti-CD28 antibody (eBiosciences-16-0281); ACK lysis buffer (1mL) (GIBCO, Cat #-A10492); Histopaque (density-1.083 gm/mL) (SIGMA 10831); Trypan blue solution (SIGMA-T8154); 2 mL Norm Ject Luer Lock syringe-(Sigma 2014-12); 40 μm nylon cell strainer (BD FALCON 35230); Hemacytometer (Bright line-SIGMA Z359629); FACS Buffer (PBS/0.1% BSA): Phosphate Buffered Saline (PBS) pH 7.2 (HiMedia TS1006) with 0.1% Bovine Serum Albumin (BSA) (SIGMA A7050) and sodium azide (SIGMA 08591); 5 mM stock solution of CFSE: CFSE stock solution was prepared by diluting lyophilized CFSE with 180 μL of Dimethyl sulfoxide (DMSO C2H6SO, SIGMA-D-5879) and aliquoted in to tubes for further use. Working concentrations were titrated from 10 μM to 1 μM. (eBioscience-650850-85); 0.05% Trypsin and 0.02% EDTA (SIGMA 59417C); 96-well format ELISA plates (Corning CLS3390); BD FACS caliber (E6016);
Recombinant mouse B7-H1/PDL1 Fc Chimera, (rm-PD-L1 cat no: 1019-B7-100).
Splenocytes harvested in a 50 mL falcon tube by mashing mouse spleen in a 40 μm cell strainer were further treated with 1 mL ACK lysis buffer for 5 min at room temperature.
After washing with 9 mL of RPMI complete media, cells were re-suspended in 3 mL of 1×PBS in a 15 mL tube. 3 mL of Histopaque was added carefully to the bottom of the tube without disturbing overlaying splenocyte suspension. After centrifuging at 800×g for 20 min at room temperature, the opaque layer of splenocytes was collected carefully without disturbing/mixing the layers. Splenocytes were washed twice with cold 1×PBS followed by total cell counting using Trypan Blue exclusion method and used further for cell based assays.
Splenocytes were cultured in RPMI complete media (RPMI +10% fetal bovine serum+1 mM sodium pyruvate+10,000units/mL penicillin and 10,000 μg/mL streptomycin) and maintained in a CO2 incubator with 5% CO2 at 37° C.
CFSE is a dye that passively diffuses into cells and binds to intracellular proteins. 1×10^6 cells/mL of harvested splenocytes were treated with 5 μM of CFSE in pre-warmed 1×PBS/0.1% BSA solution for 10 min at 37° C. Excess CFSE was quenched using 5 volumes of ice-cold culture media to the cells and incubated on ice for 5 min. CFSE labelled splenocytes were further given three washes with ice cold complete RPMI media. CFSE labelled 1×10^5 splenocytes added to wells containing either MDA-MB231 cells (1×10^5 cells cultured in high glucose DMEM medium) or recombinant […] PDL-1 (100 ng/mL) and test compounds. Splenocytes were stimulated with anti-mouse CD3 and anti-mouse CD28 antibody (lug/mL each), and the culture was further incubated for 72 h at 37° C. with 5% CO2. Cells were harvested and washed thrice with ice cold FACS buffer and % proliferation was analysed by flow cytometry with 488 nm excitation and 521 nm emission filters.
Percent splenocyte proliferation was analysed using cell quest FACS program and percent rescue of splenocyte proliferation by compound was estimated after deduction of % background proliferation value and normalising to % stimulated splenocyte proliferation (positive control) as 100%.
Stimulated splenocytes: Splenocytes+anti-CD3/CD28 stimulation
Background proliferation: Splenocytes+anti-CD3/CD28+PD-L1
Compound proliferation: Splenocytes+anti-CD3/CD28+PD-L1+Compound […]

T1 sequence (Q9H7M9 with tags, fused parts or gaps limits assumed): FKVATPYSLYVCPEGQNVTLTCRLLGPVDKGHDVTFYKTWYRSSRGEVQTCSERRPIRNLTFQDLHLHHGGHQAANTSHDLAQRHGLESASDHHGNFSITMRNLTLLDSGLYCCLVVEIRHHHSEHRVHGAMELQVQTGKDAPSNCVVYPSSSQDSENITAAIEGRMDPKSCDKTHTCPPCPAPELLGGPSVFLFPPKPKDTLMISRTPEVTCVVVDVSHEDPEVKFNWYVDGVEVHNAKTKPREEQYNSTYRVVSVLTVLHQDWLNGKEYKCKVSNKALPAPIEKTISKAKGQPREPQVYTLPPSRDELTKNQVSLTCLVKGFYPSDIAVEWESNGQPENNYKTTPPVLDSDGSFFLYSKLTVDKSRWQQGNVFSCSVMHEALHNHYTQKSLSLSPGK
T2 sequence (Q9EP73 19-238 limits assumed): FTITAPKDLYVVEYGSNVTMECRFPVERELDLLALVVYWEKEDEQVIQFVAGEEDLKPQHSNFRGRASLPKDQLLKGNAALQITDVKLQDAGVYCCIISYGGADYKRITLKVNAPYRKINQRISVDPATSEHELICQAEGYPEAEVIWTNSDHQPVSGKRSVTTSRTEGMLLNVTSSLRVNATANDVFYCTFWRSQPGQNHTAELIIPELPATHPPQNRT

Row | Compound | VISTA (rescue of IFN γ release @ 100 nM) (recombinant human VISTA) | activation at 0.1 µM (Recombinant mouse PD-L1) [%]
1 | CC(O)[C@H](NC(=O)N[C@@H](CC(N)=O)c1nc(C2(N)CCCC2)no1)C(=O)O (stereo partly shown) [Compound 25] | C (less than 50% rescue of IFN-γ release) | –
2 | N[C@@H](CO)c1noc([C@H](CC(=O)O)NC(=O)N[C@@H](CO)C(=O)O)n1 [Compound 3] | C (less than 50% rescue of IFN-γ release) | 91
3 | CCC(C)[C@H](NC(=O)N[C@H](C(=O)O)[C@@H](C)O)c1nc([C@@H](N)CO)no1 (stereo partly shown) [Compound 27] | A (more than 70% rescue of IFN-γ release) | –
4 | CC(O)[C@H](NC(=O)N[C@@H](CC(N)=O)c1nc(C2(N)CCCCC2)no1)C(=O)O (stereo partly shown) [Compound 19] | B (rescue of IFN-γ release ranges from 50% to 69.9%) | 86
5 | CC(O)[C@H](NC(=O)N[C@@H](CC(=O)O)c1nc([C@@H](N)CCCNC(=N)N)no1)C(=O)O (stereo partly shown) [Compound 15] | C (less than 50% rescue of IFN-γ release) | 70
6 | NCCCC[C@H](N)c1noc([C@H](CCC(N)=O)NC(=O)N[C@@H](CO)C(=O)O)n1 [Compound 12] | B (rescue of IFN-γ release ranges from 50% to 69.9%) | –
7 | CC(O)[C@H](NC(=O)N[C@@H](CC(N)=O)c1nc([C@@H](N)CCCCN)no1)C(=O)O (stereo partly shown) [Compound 7] | C (less than 50% rescue of IFN-γ release) | 96
8 | CC(O)[C@H](NC(=O)N[C@H](CC(N)=O)c1nc([C@H](N)CO)no1)C(=O)O (stereo partly shown) [Compound 24] | A (more than 70% rescue of IFN-γ release) | 55
9 | N[C@@H](Cc1cnc[nH]1)c1noc([C@H](CC(=O)O)NC(=O)N[C@@H](CO)C(=O)O)n1 [Compound 14] | B (rescue of IFN-γ release ranges from 50% to 69.9%) | 59
10 | CC(O)[C@H](NC(=O)N[C@@H](CC(N)=O)c1nc([C@@H](N)Cc2ccc(O)cc2)no1)C(=O)O (stereo partly shown) [Compound 5] | A (more than 70% rescue of IFN-γ release) | –
11 | CC(O)[C@H](NC(=O)N[C@H](c1nc([C@@H](N)CO)no1)C(C)C)C(=O)O (stereo partly shown) [Compound 9] | C (less than 50% rescue of IFN-γ release) | –
12 | CC(O)[C@@H](NC(=O)N[C@@H](CC(N)=O)c1nc([C@@H](N)CO)no1)C(=O)O (stereo partly shown) [Compound 20] | A (more than 70% rescue of IFN-γ release) | –
13 | CCCCCCNC(=O)CC[C@H](NC(=O)N[C@H](C(=O)O)C(C)O)c1nc([C@@H](N)CO)no1 (stereo partly shown) [Compound 18] | C (less than 50% rescue of IFN-γ release) | –
14 | CCCCCCNC(=O)C[C@H](NC(=O)N[C@H](C(=O)O)C(C)O)c1nc([C@@H](N)CO)no1 (stereo partly shown) [Compound 10] | C (less than 50% rescue of IFN-γ release) | –
15 | CCC(C)[C@H](NC(=O)N[C@@H](CCC(=O)O)C(=O)O)c1nc([C@@H](N)CCC(N)=O)no1 (stereo partly shown) [Compound 11] | C (less than 50% rescue of IFN-γ release) | –
16 | CC(=O)NCCCC[C@@H](NC(=O)N[C@H](C(=O)O)C(C)O)c1nc([C@@H](N)CO)no1 (stereo partly shown) [Compound 17] | C (less than 50% rescue of IFN-γ release) | –
17 | N[C@@H](CO)c1noc([C@H](CO)NC(=O)N[C@@H](CO)C(=O)O)n1 [Compound 13] | B (rescue of IFN-γ release ranges from 50% to 69.9%) | –
18 | N=C(N)NCCC[C@H](N)c1noc([C@H](CC(=O)O)NC(=O)N[C@@H](CO)C(=O)O)n1 [Compound 16] | B (rescue of IFN-γ release ranges from 50% to 69.9%) | –
19 | NCCCC[C@H](NC(=O)N[C@@H](CC(N)=O)c1nc([C@@H](N)CO)no1)C(=O)O [Compound 4] | B (rescue of IFN-γ release ranges from 50% to 69.9%) | –
